Tests used:
[1] = system: Puccinia recondita f. sp. Tritici; assay: Puccinia recondita f. sp. tritici / wheat / leaf disc preventative (brown rust); format: in vivo; settings: foliar, wheat leaf segments cv Kanzler, inoculated 1 day after application, assessed 7-9 days after application, read-out: control of Puccinia recondita f. sp. Tritici (percent disease control compared to untreated)
Protocol: Puccinia recondita f. Sp. Tritici/Wheat/Leaf Disc Preventative (Brown Rust): Wheat leaf segments cultivated variety (cv) Kanzler were placed on agar in 24-well plates and sprayed with formulated test compound diluted in water at an application rate of 200 ppm. The leaf disks were inoculated with a spore suspension of the fungus 1 day after application. The inoculated leaf segments were incubated at 19° C. and 75% relative humidity under a light regime of 12/12 h (light/dark) in a climate cabinet and the activity of a compound was assessed as percent disease control compared to untreated when an appropriate level of disease damage appears in untreated check leaf segments (7-9 days after application).

[2] = system: Phaeosphaeria nodorum (Septoria nodorum); assay: Phaeosphaeria nodorum (Septoria nodorum) / wheat / leaf disc preventative (glume blotch); format: in vivo; settings: Parastagonospora nodorum, foliar, wheat leaf segments cv Kanzler, inoculated 2 days after application, assessed 5-7 days after application, read-out: control of Phaeosphaeria nodorum (percent disease control compared to untreated)
Protocol: Phaeosphaeria nodorum (Septoria nodorum)/Wheat/Leaf Disc Preventative (Glume Blotch): Wheat leaf segments cv Kanzler were placed on agar in a 24-well plate and sprayed with formulated test compound diluted in water at an application rate of 200 ppm. The leaf disks are inoculated with a spore suspension of the fungus 2 days after application. The inoculated test leaf disks are incubated at 20° C. and 75% relative humidity under a light regime of 12/12 h (light/dark) in a climate cabinet and the activity of a compound is assessed as percent disease control compared to untreated when an appropriate level of disease damage appears in untreated check leaf disks (5-7 days after application).

[3] = system: Pyrenophora teres; assay: Pyrenophora teres / barley / leaf disc preventative (net blotch); format: in vivo; settings: foliar, barley leaf segments cv Hasso, inoculated two days after application, assessed 5-7 days after application, read-out: control of Pyrenophora teres (disease control compared to untreated)
Protocol: Pyrenophora Teres/Barley/Leaf Disc Preventative (Net Blotch): Barley leaf segments cv Hasso are placed on agar in a 24-well plate and sprayed with formulated test compound diluted in water at an application rate of 200 ppm. The leaf segments are inoculated with a spore suspension of the fungus two days after application of the test solution. The inoculated leaf segments are incubated at 20° C. and 65% relative humidity under a light regime of 12/12 h (light/dark) in a climate cabinet and the activity of a compound is assessed as disease control compared to untreated when an appropriate level of disease damage appears in untreated check leaf segments (5-7 days after application).

[4] = system: Botryotinia fuckeliana (Botrytis cinerea); assay: Botryotinia fuckeliana (Botrytis cinerea) / liquid culture (gray mould); format: cell-based; settings: Vogels broth, 24° C., 3-4 days after application, read-out: control of Botryotinia fuckeliana (inhibition of growth, photometric)
Protocol: (§1) Botryotinia Fuckeliana (Botrytis cinerea)/Liquid Culture (Gray Mould): Conidia of the fungus from cryogenic storage were directly mixed into nutrient broth (Vogels broth). After placing a DMSO solution of test compound into a 96-well microtiter plate at an application rate of 200 ppm, the nutrient broth containing the fungal spores was added. The test plates were incubated at 24° C. and the inhibition of growth was determined photometrically 3-4 days after application.

[5] = system: Glomerella lagenarium (Colletotrichum lagenarium); assay: Glomerella lagenarium (Colletotrichum lagenarium) / liquid culture (anthracnose); format: cell-based; settings: Colletotrichum orbiculare, PDB, 24° C., 3-4 days after application, read-out: control of Glomerella lagenarium (inhibition of growth, photometric)
Protocol: as §1, with “Glomerella lagenarium (Colletotrichum lagenarium)/Liquid” for “Botryotinia Fuckeliana (Botrytis cinerea)/Liquid”, “(Anthracnose):” for “(Gray Mould):”, “(PDB potato dextrose” for “(Vogels”, “is measured” for “was determined”

[6] = system: Mycosphaerella graminicola (Septoria tritici); assay: Mycosphaerella graminicola (Septoria tritici) / liquid culture (Septoria blotch); format: cell-based; settings: Zymoseptoria tritici, PDB, 24° C., 4-5 days after application, read-out: control of Mycosphaerella graminicola (inhibition of growth, photometric)
Protocol: as §1, with “Mycosphaerella graminicola (Septoria tritici)/Liquid” for “Botryotinia Fuckeliana (Botrytis cinerea)/Liquid”, “(Septoria Blotch):” for “(Gray Mould):”, “(PDB potato dextrose” for “(Vogels”, “4-5” for “3-4”

[7] = system: Gaeumannomyces graminis; assay: Gaeumannomyces graminis / liquid culture (take-all of cereals); format: cell-based; settings: PDB, 24° C., 4-5 days after application, read-out: control of Gaeumannomyces graminis (inhibition of growth, photometric)
Protocol: (§2) Gaeumannomyces graminis/Liquid Culture (Take-all of Cereals): Mycelial fragments of the fungus from cryogenic storage were directly mixed into nutrient broth (PDB potato dextrose broth). After placing a DMSO solution of test compound into a 96-well microtiter plate at an application rate of 200 ppm, the nutrient broth Cp.33, containing the fungal spores is added. The test plates were incubated at 24° C. and the inhibition of growth was determined photometrically 4-5 days after application.

[8] = system: Thanatephorus cucumeris (Rhizoctonia solani); assay: Thanatephorus cucumeris (Rhizoctonia solani) / liquid culture (foot rot, damping-off); format: cell-based; settings: PDB, 24° C., 3-4 days after application, read-out: control of Thanatephorus cucumeris (inhibition of growth, photometric)
Protocol: Thanatephorus cucumeris (Rhizoctonia solani)/Liquid Culture (Foot Rot, Damping-Off): Mycelia fragments of a newly grown liquid culture of the fungus are directly mixed into nutrient broth (PDB potato dextrose broth). After placing a DMSO solution of the test compounds into a 96-well microtiter plate at an application rate of 200 ppm, the nutrient broth containing the fungal material was added. The test plates were incubated at 24° C. and the inhibition of growth was determined photometrically 3-4 days after application.

[9] = system: Monographella nivalis (Microdochium nivale); assay: Monographella nivalis (Microdochium nivale) / liquid culture (foot rot cereals); format: cell-based; settings: PDB, 24° C., 4-5 days after application, read-out: control of Monographella nivalis (inhibition of growth, photometric)
Protocol: as §2, with “Monographella nivalis (Microdochium nivale)/Liquid” for “Gaeumannomyces graminis/Liquid”, “(Foot Rot” for “(Take-all of”, “Conidia” for “Mycelial fragments”, “broth” for “broth Cp.33,”, “was” for “is”

[10] = system: Sclerotinia sclerotiorum; assay: Sclerotinia sclerotiorum liquid culture (cottony rot / white mold); format: cell-based; settings: PDB, 24° C., 3-4 days after application, read-out: control of Sclerotinia sclerotiorum (inhibition of growth, photometric)
Protocol: Sclerotinia sclerotiorum (Cottony Rot/White Mold): Mycelia fragments of a newly grown liquid culture of the fungus were directly mixed into nutrient broth (PDB potato dextrose broth). After placing a (DMSO) solution of test compound into a microtiter plate (96-well format) the nutrient broth containing the fungal material was added. The test plates are incubated at 24° C. and the inhibition of growth was determined photometrically 3-4 days after application.

CCCn1c(-n2ncnc2N)nc2cncc(-c3ccccc3F)c21 [Compound 121, 2-[7-(2-fluorophenyl)-1-propylimidazo[4,5-c]pyridin-2-yl]-1,2,4-triazol-3-amine]
≥ 80%: pest or weed control at 200 ppm [1] | pest or weed control at 200 ppm [2] | pest or weed control at 200 ppm [3] | inhibition at 20 ppm [4] | inhibition at 20 ppm [5] | inhibition at 20 ppm [6] | inhibition at 20 ppm [7] | inhibition at 20 ppm [8]

CCn1c(-n2ncnc2N)nc2cncc(-c3ccc(C(F)(F)F)cc3Cl)c21 [Compound 97]
≥ 80%: pest or weed control at 200 ppm [1] | pest or weed control at 200 ppm [3] | inhibition at 20 ppm [4] | inhibition at 20 ppm [5] | inhibition at 20 ppm [6] | inhibition at 20 ppm [7] | inhibition at 20 ppm [8] | inhibition at 20 ppm [9] | inhibition at 20 ppm [10]

CCCn1c(-n2ncnc2N)nc2cncc(/C(C)=N\OCC=C(C)C)c21 [Compound 188]
≥ 80%: pest or weed control at 200 ppm [1] | pest or weed control at 200 ppm [2] | pest or weed control at 200 ppm [3] | inhibition at 20 ppm [4] | inhibition at 20 ppm [6] | inhibition at 20 ppm [7] | inhibition at 20 ppm [8] | inhibition at 20 ppm [9] | inhibition at 20 ppm [10]

CCn1c(-n2ncnc2N)nc2cncc(-c3cc(Cl)ccc3F)c21 [Compound 91, 2-[7-(5-chloro-2-fluorophenyl)-1-ethylimidazo[4,5-c]pyridin-2-yl]-1,2,4-triazol-3-amine]
≥ 80%: pest or weed control at 200 ppm [1] | pest or weed control at 200 ppm [3] | inhibition at 20 ppm [4] | inhibition at 20 ppm [5] | inhibition at 20 ppm [6] | inhibition at 20 ppm [7] | inhibition at 20 ppm [8] | inhibition at 20 ppm [9] | inhibition at 20 ppm [10]

CCn1c(-n2ncnc2N)nc2cncc(-c3cc4ccccc4nc3F)c21 [Compound 66, 2-[1-ethyl-7-(2-fluoroquinolin-3-yl)imidazo[4,5-c]pyridin-2-yl]-1,2,4-triazol-3-amine]
≥ 80%: pest or weed control at 200 ppm [2] | pest or weed control at 200 ppm [3] | inhibition at 20 ppm [4] | inhibition at 20 ppm [6] | inhibition at 20 ppm [7] | inhibition at 20 ppm [8] | inhibition at 20 ppm [10]

CCn1c(-n2ncnc2N)nc2cncc(-c3ccc(Cl)cc3)c21 [Compound 35, 2-[7-(4-chlorophenyl)-1-ethylimidazo[4,5-c]pyridin-2-yl]-1,2,4-triazol-3-amine]
≥ 80%: pest or weed control at 200 ppm [1] | pest or weed control at 200 ppm [3] | inhibition at 20 ppm [4] | inhibition at 20 ppm [5] | inhibition at 20 ppm [6] | inhibition at 20 ppm [8] | inhibition at 20 ppm [10]

CCn1c(-n2ncnc2N)nc2cncc(-c3cc(C(F)(F)F)ccc3F)c21 [Compound 84, 2-[1-ethyl-7-[2-fluoro-5-(trifluoromethyl)phenyl]imidazo[4,5-c]pyridin-2-yl]-1,2,4-triazol-3-amine]
≥ 80%: pest or weed control at 200 ppm [3] | inhibition at 20 ppm [4] | inhibition at 20 ppm [6] | inhibition at 20 ppm [7] | inhibition at 20 ppm [8] | inhibition at 20 ppm [10]

CCn1c(-n2ncnc2N)nc2cncc(/C(C)=N/OC/C=C/Cl)c21 [Compound 150]
≥ 80%: pest or weed control at 200 ppm [1] | pest or weed control at 200 ppm [3] | inhibition at 20 ppm [4] | inhibition at 20 ppm [5] | inhibition at 20 ppm [6] | inhibition at 20 ppm [8] | inhibition at 20 ppm [9] | inhibition at 20 ppm [10]

CCn1c(-n2ncnc2N)nc2cncc(-c3ccc(C)c(F)c3)c21 [Compound 41, 2-[1-ethyl-7-(3-fluoro-4-methylphenyl)imidazo[4,5-c]pyridin-2-yl]-1,2,4-triazol-3-amine]
≥ 80%: pest or weed control at 200 ppm [1] | pest or weed control at 200 ppm [3] | inhibition at 20 ppm [4] | inhibition at 20 ppm [6] | inhibition at 20 ppm [8] | inhibition at 20 ppm [10]

CCCON=C(C)c1cncc2nc(-n3ncnc3N)n(CC)c12 [Compound 143]
≥ 80%: pest or weed control at 200 ppm [1] | pest or weed control at 200 ppm [2] | pest or weed control at 200 ppm [3] | inhibition at 20 ppm [4] | inhibition at 20 ppm [5] | inhibition at 20 ppm [6] | inhibition at 20 ppm [8] | inhibition at 20 ppm [10]

CCCn1c(-n2ncnc2N)nc2cncc(/C(C)=N/OC/C=C\Cl)c21 [Compound 181]
≥ 80%: pest or weed control at 200 ppm [1] | pest or weed control at 200 ppm [3] | inhibition at 20 ppm [4] | inhibition at 20 ppm [6] | inhibition at 20 ppm [7] | inhibition at 20 ppm [8] | inhibition at 20 ppm [9] | inhibition at 20 ppm [10]

CCn1c(-n2ncnc2N)nc2cncc(-c3cccc(OC)c3OC)c21 [Compound 83, 2-[7-(2,3-dimethoxyphenyl)-1-ethylimidazo[4,5-c]pyridin-2-yl]-1,2,4-triazol-3-amine]
≥ 80%: pest or weed control at 200 ppm [1] | pest or weed control at 200 ppm [2] | pest or weed control at 200 ppm [3] | inhibition at 20 ppm [4] | inhibition at 20 ppm [6] | inhibition at 20 ppm [7] | inhibition at 20 ppm [8]

CCn1c(-n2ncnc2N)nc2cncc(-c3cc(F)cc(F)c3)c21 [Compound 37, 2-[7-(3,5-difluorophenyl)-1-ethylimidazo[4,5-c]pyridin-2-yl]-1,2,4-triazol-3-amine]
≥ 80%: pest or weed control at 200 ppm [2] | pest or weed control at 200 ppm [3] | inhibition at 20 ppm [4] | inhibition at 20 ppm [5] | inhibition at 20 ppm [6] | inhibition at 20 ppm [8]

Reference: patent US9512120B2, “Microbicidally active imidazopyridine derivatives” (Syngenta Participations AG, priority 2013, dated 2016)
